# Results as given in patent US20110092367A1, “Herbicidal Compositions Comprising 4-amino-3,6-dichloropyridine-2-carboxylic Acid” (BASF SE, priority 2008, published 2011).
# Tests used:
# oilseed rape = assay: Field trial Example 1, successive application: phytotoxicity (PHYTOX) on oilseed rape crop; assay type: in vivo; details: for PHYTOX (damage on the oilseed rape crop): DAT 205/DALT 190
# Excerpt: Aminiopyralid was used as commercial aquaeous solution having an active ingredient concentration of 240 g/l (Milestone™). Metazachlor was used as a commercial suspension concentrate having an active ingredient concentration of 500 g/l (Butisan S®).
# The performance of aminopyralid applied as an alone treatment at 15, 30 and 50 g a.i./ha applied as an early post emergence treatment and an post emergence treatment in comparison to two different applications including metazachlor at 500 g a.i./ha as an early post emergence application in succession of aminopyralid as a post emergence application at 15 and 30 g a.i./ha was assessed in an oilseed rape field trials.
# The early post emergence treatment was applied by means of fine distributed nozzles at the growth stage (GS) of the crop BBCH 11-12.
# The post emergence treatment was applied by means of fine distributed nozzles at the growth stage (GS) of the crop BBCH 13-14.
# The test period extended over the autumn and spring season (205 days).
# In the following experiments, the herbicidal activity for the individual herbicide compounds (solo application) and of the herbicidal succession was assessed 4 times:
# The evaluation for the damage on the oilseed rape crop, the plant injury or phytotoxicity (PHYTOX) caused by the chemical compositions was carried out using a scale from 0 to 100%, compared to the untreated control plants. Here, 0 means no damage and 100 means high injury of the plants.
# Mercurialis annua = assay: Greenhouse trial, post-emergence: MERAN; assay type: in vivo; details: for % activity 28 DAT: MERAN
# Experimental: The test plants have been seeded, separately for each species, in plastic containers in sandy loamy soil containing 5% organic matter.
# For the post emergence treatment, the plants were first grown to the 2 leaf station (GS 12). Here, the herbicidal compositions were suspended or emulsified in water as distribution medium and sprayed using finely distributing nozzels.
# The plants have been cultivated due to there individual requirements at 10-25° C. and 20-35° C. The plants were irrigated due to there necessity. […]
# The evaluation for the damage on undesired weeds caused by the chemical compositions was carried out using a scale from 0 to 100%, compared to the untreated control plants. Here, 0 means no damage and 100 means complete destruction of the plants.
# Calculation of expected activity of binary mixtures was done by using the Colby-Formula according to Example 1.
smiles,measurement,setting,value
"Nc1cc(Cl)nc(C(=O)O)c1Cl [aminopyralid, 4-amino-3,6-dichloropyridine-2-carboxylic acid]",PHYTOX (damage on oilseed rape crop),"oilseed rape; 15 g ai/ha, treatment A early post emergence, DAT 25/DALT 10",11%
same,PHYTOX (damage on oilseed rape crop),"oilseed rape; 15 g ai/ha, treatment A early post emergence, DAT 65/DALT 50",3%
same,PHYTOX (damage on oilseed rape crop),"oilseed rape; 15 g ai/ha, treatment A early post emergence, DAT 176/DALT 161",2%
same,PHYTOX (damage on oilseed rape crop),"oilseed rape; 15 g ai/ha, treatment B post emergence, DAT 25/DALT 10",0%
same,PHYTOX (damage on oilseed rape crop),"oilseed rape; 15 g ai/ha, treatment B post emergence, DAT 65/DALT 50",0%
same,PHYTOX (damage on oilseed rape crop),"oilseed rape; 15 g ai/ha, treatment B post emergence, DAT 176/DALT 161",0%
same,PHYTOX (damage on oilseed rape crop),"oilseed rape; 30 g ai/ha, treatment A early post emergence, DAT 25/DALT 10",27%
same,PHYTOX (damage on oilseed rape crop),"oilseed rape; 30 g ai/ha, treatment A early post emergence, DAT 65/DALT 50",30%
same,PHYTOX (damage on oilseed rape crop),"oilseed rape; 30 g ai/ha, treatment A early post emergence, DAT 176/DALT 161",0%
same,PHYTOX (damage on oilseed rape crop),"oilseed rape; 30 g ai/ha, treatment B post emergence, DAT 25/DALT 10",0%
same,PHYTOX (damage on oilseed rape crop),"oilseed rape; 30 g ai/ha, treatment B post emergence, DAT 65/DALT 50",0%
same,PHYTOX (damage on oilseed rape crop),"oilseed rape; 30 g ai/ha, treatment B post emergence, DAT 176/DALT 161",0%
same,PHYTOX (damage on oilseed rape crop),"oilseed rape; 50 g ai/ha, treatment A early post emergence, DAT 25/DALT 10",40%
same,PHYTOX (damage on oilseed rape crop),"oilseed rape; 50 g ai/ha, treatment A early post emergence, DAT 65/DALT 50",50%
same,PHYTOX (damage on oilseed rape crop),"oilseed rape; 50 g ai/ha, treatment A early post emergence, DAT 176/DALT 161",0%
same,PHYTOX (damage on oilseed rape crop),"oilseed rape; 50 g ai/ha, treatment B post emergence, DAT 25/DALT 10",7%
same,PHYTOX (damage on oilseed rape crop),"oilseed rape; 50 g ai/ha, treatment B post emergence, DAT 65/DALT 50",0%
same,PHYTOX (damage on oilseed rape crop),"oilseed rape; 50 g ai/ha, treatment B post emergence, DAT 176/DALT 161",0%
same,PHYTOX (damage on the oilseed rape crop),"oilseed rape; aminopyralid 15 g ai/ha, treatment A",0%
same,PHYTOX (damage on the oilseed rape crop),"oilseed rape; aminopyralid 15 g ai/ha, treatment B",0%
same,PHYTOX (damage on the oilseed rape crop),"oilseed rape; aminopyralid 30 g ai/ha, treatment A",0%
same,PHYTOX (damage on the oilseed rape crop),"oilseed rape; aminopyralid 30 g ai/ha, treatment B",0%
same,PHYTOX (damage on the oilseed rape crop),"oilseed rape; aminopyralid 50 g ai/ha, treatment A",0%
same,PHYTOX (damage on the oilseed rape crop),"oilseed rape; aminopyralid 50 g ai/ha, treatment B",0%
same,% activity 28 DAT,"Mercurialis annua; aminopyralid 5 g ai/ha solo, post-emergence (Table 10)",70%
same,% activity 28 DAT,"Mercurialis annua; aminopyralid 5 g ai/ha solo, post-emergence (Tables 7-9)",40%
same,% activity 28 DAT,"Mercurialis annua; aminopyralid 10 g ai/ha solo, post-emergence (Table 10)",90%
same,% activity 28 DAT,"Mercurialis annua; aminopyralid 10 g ai/ha solo, post-emergence (Tables 7-9)",75%
same,inhibition at 10 g/ha,"Mercurialis annua; Mercurialis annua, post-emergence, 672 h, read-out: % activity 28 DAT, MERAN",90%
